Data on one molecule can be found in publication PMC7143284, “A Phenotarget Approach for Identifying an Alkaloid Interacting with the Tuberculosis Protein Rv1466” (Marine Drugs, 2020).

The term Kd denotes the equilibrium constant for the complex coming apart. Read a high Kd as lower affinity.

For the assay, the target named is Rv1466 (Mycobacterium tuberculosis, UniProt O53157). Description: […]; bound species is […] Da (half of the disulfide dimer). It counts as binding.
Sequence of Rv1466 (O53157 1-115 limits assumed): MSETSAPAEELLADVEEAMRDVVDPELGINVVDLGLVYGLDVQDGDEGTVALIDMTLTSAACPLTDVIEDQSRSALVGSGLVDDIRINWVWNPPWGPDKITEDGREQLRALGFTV

In the case of `COc1ccc(-c2nc(N)n(C)c2SSc2c(-c3ccc(OC)cc3)nc(N)n2C)cc1` [polycarpine], binding was characterised by a dissociation constant (Kd) of 5.3 ± 0.4 µM.
